pIC50: −log10 of the molar value. Bounds are passed on as bounds.

For 25 compounds, IC50 results are on record in patent US20090298820A1, “3-SUBSTITUTED-1H-PYRROLO[2,3-B]PYRIDINE AND 3-SUBSTITUTED-1H-PYRROLO[3,2-B]PYRIDINE COMPOUNDS, THEIR USE AS MTOR KINASE AND PI3 KINASE INHIBITORS, AND THEIR SYNTHESES” (Wyeth, priority 2008, published 2009).

Common to all, as to type: biochemical
One experiment addresses PI3Kγ (Homo sapiens, UniProt P48736). Put plainly: PI3K-gamma fluorescence polarization assay. The note with it: read-out: PI3Kγ Median IC50.
The next experiment concerns the target PI3Kα (Homo sapiens, UniProt P42336). Put plainly: PI3K-alpha fluorescence polarization assay. The note with it: read-out: PI3Kα Median IC50. For orientation: Polarisation of emitted light reports the rotation of a fluorescent probe.
The next experiment addresses mTOR (Homo sapiens, UniProt P42345). In words: mTOR enzyme assay (DELFIA format, His6-S6K substrate). To be noted: read-out: mTOR Kinase Median IC50.

Sequence of PI3Kγ (P48736 whole entry, species assumed): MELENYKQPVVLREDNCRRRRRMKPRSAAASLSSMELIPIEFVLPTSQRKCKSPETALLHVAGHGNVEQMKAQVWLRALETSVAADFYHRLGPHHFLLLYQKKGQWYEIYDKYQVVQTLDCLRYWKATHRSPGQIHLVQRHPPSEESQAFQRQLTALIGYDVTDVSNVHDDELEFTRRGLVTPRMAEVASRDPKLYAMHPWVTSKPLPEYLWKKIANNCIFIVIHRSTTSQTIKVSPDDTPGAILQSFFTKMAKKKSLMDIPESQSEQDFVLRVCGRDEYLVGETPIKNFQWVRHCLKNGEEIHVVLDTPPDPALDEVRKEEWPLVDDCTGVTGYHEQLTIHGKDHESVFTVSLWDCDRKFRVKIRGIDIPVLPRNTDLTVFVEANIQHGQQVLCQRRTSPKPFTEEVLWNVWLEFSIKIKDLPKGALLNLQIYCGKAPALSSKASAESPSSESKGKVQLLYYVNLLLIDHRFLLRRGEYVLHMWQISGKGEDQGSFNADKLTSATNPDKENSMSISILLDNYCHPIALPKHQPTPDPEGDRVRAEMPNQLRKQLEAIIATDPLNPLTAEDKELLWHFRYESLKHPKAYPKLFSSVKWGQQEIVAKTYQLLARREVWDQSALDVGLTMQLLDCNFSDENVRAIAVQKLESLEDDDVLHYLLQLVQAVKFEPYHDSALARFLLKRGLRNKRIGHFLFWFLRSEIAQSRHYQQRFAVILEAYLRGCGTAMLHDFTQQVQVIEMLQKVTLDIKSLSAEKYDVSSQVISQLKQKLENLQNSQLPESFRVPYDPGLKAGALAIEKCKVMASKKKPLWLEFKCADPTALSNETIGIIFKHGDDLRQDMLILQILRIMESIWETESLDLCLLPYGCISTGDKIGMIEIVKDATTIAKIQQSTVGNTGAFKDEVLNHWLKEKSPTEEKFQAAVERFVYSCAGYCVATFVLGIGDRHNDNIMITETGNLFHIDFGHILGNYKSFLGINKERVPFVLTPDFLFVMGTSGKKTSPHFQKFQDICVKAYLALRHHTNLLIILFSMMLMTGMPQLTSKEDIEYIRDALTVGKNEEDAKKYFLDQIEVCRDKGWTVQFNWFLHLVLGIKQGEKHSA
Sequence of PI3Kα (P42336 whole entry, species assumed): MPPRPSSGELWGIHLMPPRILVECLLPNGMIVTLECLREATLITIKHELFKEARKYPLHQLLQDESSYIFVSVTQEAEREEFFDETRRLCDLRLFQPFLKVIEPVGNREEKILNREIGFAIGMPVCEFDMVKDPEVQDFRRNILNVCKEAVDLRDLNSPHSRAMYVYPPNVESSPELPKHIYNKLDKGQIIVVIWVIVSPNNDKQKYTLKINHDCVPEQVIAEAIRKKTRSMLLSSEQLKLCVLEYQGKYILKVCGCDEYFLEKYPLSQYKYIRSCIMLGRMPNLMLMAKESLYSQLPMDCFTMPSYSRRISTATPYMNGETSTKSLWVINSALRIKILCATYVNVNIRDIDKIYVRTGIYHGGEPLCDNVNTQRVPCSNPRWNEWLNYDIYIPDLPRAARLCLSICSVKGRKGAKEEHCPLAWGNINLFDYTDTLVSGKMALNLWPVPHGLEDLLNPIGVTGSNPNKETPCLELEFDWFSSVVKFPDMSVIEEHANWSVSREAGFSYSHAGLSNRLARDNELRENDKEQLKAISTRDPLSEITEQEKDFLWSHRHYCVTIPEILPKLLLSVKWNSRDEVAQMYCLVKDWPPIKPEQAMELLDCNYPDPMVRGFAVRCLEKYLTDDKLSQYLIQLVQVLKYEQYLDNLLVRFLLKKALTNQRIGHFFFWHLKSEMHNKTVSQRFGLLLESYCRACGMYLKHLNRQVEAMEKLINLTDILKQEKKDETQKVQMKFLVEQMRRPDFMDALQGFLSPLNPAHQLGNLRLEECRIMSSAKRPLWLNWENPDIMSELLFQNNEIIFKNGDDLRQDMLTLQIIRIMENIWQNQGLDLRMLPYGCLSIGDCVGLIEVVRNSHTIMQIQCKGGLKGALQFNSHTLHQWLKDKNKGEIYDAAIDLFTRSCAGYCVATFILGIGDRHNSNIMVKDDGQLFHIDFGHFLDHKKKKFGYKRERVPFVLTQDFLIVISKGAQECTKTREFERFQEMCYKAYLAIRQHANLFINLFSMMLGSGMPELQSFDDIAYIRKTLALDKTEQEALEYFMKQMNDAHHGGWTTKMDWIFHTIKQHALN
Sequence of PI3Kα (P27986 whole entry partner, species assumed): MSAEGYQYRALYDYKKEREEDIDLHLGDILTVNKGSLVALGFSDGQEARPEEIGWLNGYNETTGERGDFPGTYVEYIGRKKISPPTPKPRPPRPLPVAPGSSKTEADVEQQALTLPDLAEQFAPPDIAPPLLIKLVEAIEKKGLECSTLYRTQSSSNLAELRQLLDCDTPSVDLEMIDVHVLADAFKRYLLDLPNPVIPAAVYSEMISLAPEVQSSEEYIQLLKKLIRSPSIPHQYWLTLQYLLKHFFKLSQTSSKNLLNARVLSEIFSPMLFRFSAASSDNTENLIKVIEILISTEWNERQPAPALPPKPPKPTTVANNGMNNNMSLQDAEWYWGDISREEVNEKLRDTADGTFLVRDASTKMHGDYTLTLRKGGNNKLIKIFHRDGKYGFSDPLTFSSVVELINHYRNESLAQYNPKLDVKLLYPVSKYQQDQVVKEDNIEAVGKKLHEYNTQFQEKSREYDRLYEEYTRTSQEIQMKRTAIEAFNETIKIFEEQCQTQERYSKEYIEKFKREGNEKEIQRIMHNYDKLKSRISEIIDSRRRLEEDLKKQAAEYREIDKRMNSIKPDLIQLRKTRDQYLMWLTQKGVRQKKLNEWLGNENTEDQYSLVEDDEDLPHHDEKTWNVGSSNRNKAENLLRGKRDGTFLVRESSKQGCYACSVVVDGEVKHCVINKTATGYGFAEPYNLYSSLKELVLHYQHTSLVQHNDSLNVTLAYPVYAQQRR

For the compound `Cn1cc(/C=C2\Oc3cc(O)cc(O)c3C2=O)c2c(-c3ccc(C(N)=NO)cc3)ccnc21` [Compound 20, 4-{3-[(Z)-(4,6-dihydroxy-3-oxo-1-benzofuran-2(3H)-ylidene)methyl]-1-methyl-1H-pyrrolo[2,3-b]pyridin-4-yl}-N′-hydroxybenzenecarboximidamide], the figures for the negative logarithm of the IC50 (pIC50) on PI3Kγ, on PI3Kα and at mTOR were 7.36, 8.22 and 9.70, respectively.
For `Cn1cc(/C=C2\Oc3cccc(O)c3C2=O)c2c(-c3cccc(S(N)(=O)=O)c3)ccnc21` [Compound 21, 3-{3-[(Z)-(4-hydroxy-3-oxo-1-benzofuran-2(3H)-ylidene)methyl]-1-methyl-1H-pyrrolo[2,3-b]pyridin-4-yl}benzenesulfonamide], the figures for the pIC50 at PI3Kγ, at PI3Kα and on mTOR were 6.85, 7.47 and 8.46, respectively.
The corresponding values for `Cn1cc(/C=C2\Oc3cc(O)cc(O)c3C2=O)c2c(-c3ccccc3)ccnc21` [Compound 24, (2Z)-4,6-dihydroxy-2-[(1-methyl-4-phenyl-1H-pyrrolo[2,3-b]pyridin-3-yl)methylene]-1-benzofuran-3(2H)-one] are 7.03, 7.02 and 9.30.
On to `CN(C)c1ccc(-c2ccnc3c2c(/C=C2\Oc4cc(O)cc(O)c4C2=O)cn3C)cc1` [Compound 25, (2Z)-2-({4-[4-(dimethylamino)phenyl]-1-methyl-1H-pyrrolo[2,3-b]pyridin-3-yl}methylene)-4,6-dihydroxy-1-benzofuran-3(2H)-one], for which the figures for the pIC50 on PI3Kγ, at PI3Kα and at mTOR were 7.08, 7.07 and 9.30, respectively.
The corresponding values for `COc1ccc2[nH]cc(/C=C3\Oc4cc(O)cc(O)c4C3=O)c2n1` [Compound 26, (2Z)-4,6-dihydroxy-2-[(5-methoxy-1H-pyrrolo[3,2-b]pyridin-3-yl)methylene]-1-benzofuran-3(2H)-one] are 5.80, 6.63 and less than 5.40.
As for `Cn1c(-c2ccccc2)c(/C=C2\Oc3cc(O)cc(O)c3C2=O)c2cccnc21` [Compound 27, (2Z)-4,6-dihydroxy-2-[(1-methyl-2-phenyl-1H-pyrrolo[2,3-b]pyridin-3-yl)methylene]-1-benzofuran-3(2H)-one], the figures for the pIC50 at PI3Kγ, at PI3Kα and on mTOR were 5.40, 6.09 and 7.30, respectively.
The corresponding values for `Cn1c(-c2ccccc2)c(/C=C2\Oc3cc(O)ccc3C2=O)c2cccnc21` [Compound 28, (2Z)-6-hydroxy-2-[(1-methyl-2-phenyl-1H-pyrrolo[2,3-b]pyridin-3-yl)methylene]-1-benzofuran-3(2H)-one] are 5.29, 5.29 and 5.60.
Taken in the same sequence, the figures for `Cn1c(-c2ccccc2)c(/C=C2\Oc3cccc(O)c3C2=O)c2cccnc21` [Compound 29, (2Z)-4-hydroxy-2-[(1-methyl-2-phenyl-1H-pyrrolo[2,3-b]pyridin-3-yl)methylene]-1-benzofuran-3(2H)-one] were 5.10, 5.44 and 5.57.
With `Cn1cc(/C=C2\Oc3cc(O)cc(O)c3C2=O)c2c(-c3cccnc3)ccnc21` [Compound 33, (2Z)-4,6-dihydroxy-2-[(1-methyl-4-pyridin-3-yl-1H-pyrrolo[2,3-b]pyridin-3-yl)methylene]-1-benzofuran-3(2H)-one], the figures for the pIC50 on PI3Kγ, on PI3Kα and at mTOR were 7.42, 8.10 and 9.22, respectively.
Taken in the same sequence, the figures for `Cn1cc(/C=C2\Oc3cc(O)cc(O)c3C2=O)c2c(-c3ccc(C(N)=O)cc3)ccnc21` [Compound 34, 4-{3-[(Z)-(4,6-dihydroxy-3-oxo-1-benzofuran-2(3H)-ylidene)methyl]-1-methyl-1H-pyrrolo[2,3-b]pyridin-4-yl}benzamide] were 7.42, 8.22 and 9.70.
The corresponding values for `CC(=O)Nc1ccc(-c2ccnc3c2c(/C=C2\Oc4cc(O)cc(O)c4C2=O)cn3C)cc1` [Compound 35, N-(4-{3-[(Z)-(4,6-dihydroxy-3-oxo-1-benzofuran-2(3H)-ylidene)methyl]-1-methyl-1H-pyrrolo[2,3-b]pyridin-4-yl}phenyl)acetamide] are 7.29, 7.96 and 9.40.
The corresponding values for `Cn1cc(/C=C2\Oc3cc(O)cc(O)c3C2=O)c2c(-c3ccc(NS(C)(=O)=O)cc3)ccnc21` [Compound 36, N-(4-{3-[(Z)-(4,6-dihydroxy-3-oxo-1-benzofuran-2(3H)-ylidene)methyl]-1-methyl-1H-pyrrolo[2,3-b]pyridin-4-yl}phenyl)methanesulfonamide] are 7.44, 8.15 and 9.52.
With `Cn1cc(/C=C2\Oc3cc(O)cc(O)c3C2=O)c2c(-c3ccc(N)cc3)ccnc21` [Compound 41, (2Z)-2-{[4-(4-aminophenyl)-1-methyl-1H-pyrrolo[2,3-b]pyridin-3-yl]methylene}-4,6-dihydroxy-1-benzofuran-3(2H)-one], the values for the pIC50 on PI3Kγ, at PI3Kα and at mTOR were 6.85, 7.62 and 9.40, respectively.
Taken in the same sequence, the figures for `CNc1ccc(-c2ccnc3c2c(/C=C2\Oc4cc(O)cc(O)c4C2=O)cn3C)cc1` [Compound 43, (2Z)-4,6-dihydroxy-2-({1-methyl-4-[4-(methylamino)phenyl]-1H-pyrrolo[2,3-b]pyridin-3-yl}methylene)-1-benzofuran-3(2H)-one] were 7.18, 7.72 and 9.40.
On to `Cn1cc(/C=C2\Oc3cc(O)cc(O)c3C2=O)c2c(N3CCOCC3)ccnc21` [Compound 45, (2Z)-4,6-dihydroxy-2-[(1-methyl-4-morpholin-4-yl-1H-pyrrolo[2,3-b]pyridin-3-yl)methylene]-1-benzofuran-3(2H)-one], for which the pIC50 on PI3Kγ is 6.88; on PI3Kα, 7.92; at mTOR, 9.52.
`CN1CCN(c2ccnc3c2c(/C=C2\Oc4cccc(O)c4C2=O)cn3C)CC1` [Compound 47, (2Z)-4-hydroxy-2-{[1-methyl-4-(4-methylpiperazin-1-yl)-1H-pyrrolo[2,3-b]pyridin-3-yl]methylene}-1-benzofuran-3(2H)-one]: the pIC50 is 6.19 at PI3Kγ, 6.76 at PI3Kα and 8.55 at mTOR.
Taken in the same sequence, the figures for `Cn1cc(/C=C2\Oc3cccc(O)c3C2=O)c2c(N3CCOCC3)ccnc21` [Compound 48, (2Z)-4-hydroxy-2-[(1-methyl-4-morpholin-4-yl-1H-pyrrolo[2,3-b]pyridin-3-yl)methylene]-1-benzofuran-3(2H)-one] were 6.74, 7.28 and 8.66.
As to `Cn1cc(/C=C2\Oc3cc(O)cc(O)c3C2=O)c2c(-c3ccc(N4CCOCC4)cc3)ccnc21` [Compound 49, (2Z)-4,6-dihydroxy-2-{[1-methyl-4-(4-morpholin-4-ylphenyl)-1H-pyrrolo[2,3-b]pyridin-3-yl]methylene}-1-benzofuran-3(2H)-one], the pIC50 is 7.08 on PI3Kγ, 7.60 at PI3Kα and 9.70 on mTOR.
The corresponding values for `Cn1cc(/C=C2\Oc3cc(O)cc(O)c3C2=O)c2c(N3CCC(O)CC3)ccnc21` [Compound 50, (2Z)-4,6-dihydroxy-2-{[4-(4-hydroxypiperidin-1-yl)-1-methyl-1H-pyrrolo[2,3-b]pyridin-3-yl]methylene}-1-benzofuran-3(2H)-one] are 6.75, 7.64 and 9.70.
The corresponding values for `Cn1cc(/C=C2\Oc3cc(O)cc(O)c3C2=O)c2c(/C=C/c3ccccc3)ccnc21` [Compound 51, (2Z)-4,6-dihydroxy-2-({1-methyl-4-[(E)-2-phenylvinyl]-1H-pyrrolo[2,3-b]pyridin-3-yl}methylene)-1-benzofuran-3(2H)-one] are 7.04, 7.33 and 8.47.
For `CN(C)c1cccc(-c2ccnc3c2c(/C=C2\Oc4cc(O)cc(O)c4C2=O)cn3C)c1` [Compound 52, (2Z)-2-({4-[3-(dimethylamino)phenyl]-1-methyl-1H-pyrrolo[2,3-b]pyridin-3-yl}methylene)-4,6-dihydroxy-1-benzofuran-3(2H)-one], the pIC50 was 6.70 at PI3Kγ, 6.91 at PI3Kα and 9.22 on mTOR.
The corresponding values for `Cn1cc(/C=C2\Oc3cc(O)cc(O)c3C2=O)c2c(N3CC4CCC(C3)O4)ccnc21` [Compound 54, (2Z)-4,6-dihydroxy-2-{[1-methyl-4-(8-oxa-3-azabicyclo[3.2.1]oct-3-yl)-1H-pyrrolo[2,3-b]pyridin-3-yl]methylene}-1-benzofuran-3(2H)-one] are 7.15, 7.96 and 10.00.
`Cn1cc(/C=C2\Oc3cccc(O)c3C2=O)c2c(N3CC4CCC(C3)O4)ccnc21` [Compound 55, (2Z)-4-hydroxy-2-{[1-methyl-4-(8-oxa-3-azabicyclo[3.2.1]oct-3-yl)-1H-pyrrolo[2,3-b]pyridin-3-yl]methylene}-1-benzofuran-3(2H)-one]: the pIC50 was 7.29 at PI3Kγ, 6.98 at PI3Kα and 9.40 on mTOR.
The corresponding values for `CN1CCN(c2ccc(-c3ccnc4c3c(/C=C3\Oc5cc(O)cc(O)c5C3=O)cn4C)cc2)CC1` [Compound 56, (2Z)-4,6-dihydroxy-2-({1-methyl-4-[4-(4-methylpiperazin-1-yl)phenyl]-1H-pyrrolo[2,3-b]pyridin-3-yl}methylene)-1-benzofuran-3(2H)-one] are 6.24, 7.10 and 8.72.
Taken in the same sequence, the figures for `CN1CCN(c2ccc(-c3ccnc4c3c(/C=C3\Oc5cccc(O)c5C3=O)cn4C)cc2)CC1` [Compound 57, (2Z)-4-hydroxy-2-({1-methyl-4-[4-(4-methylpiperazin-1-yl)phenyl]-1H-pyrrolo[2,3-b]pyridin-3-yl}methylene)-1-benzofuran-3(2H)-one] were 6.83, 6.83 and 7.94.

One may read the pIC50 as the IC50 on a negative log10 scale, so that one unit is a factor of ten.
